`Cc1cc(-c2ccc(N)c(C)c2)ccc1N` [4-(4-amino-3-methylphenyl)-2-methylaniline] gave a flash point of 244.00 °C. Compound `ClCCCBr` [1-bromo-3-chloropropane] has a flash point of 57.00 °C. `C1CCNCC1` [piperidine] gave a flash point of 3.00 °C. With `CC(C)c1ccccc1O` [2-propan-2-ylphenol] the flash point was 104.00 °C. `c1ccc(-c2ccccc2-c2ccccc2)cc1` [1,2-diphenylbenzene] showed a flash point of 163.00 °C. For `Clc1ccccc1Cl` [1,2-dichlorobenzene], the flash point was 66.00 °C. In the case of `C=C(C)C#N` [2-methylprop-2-enenitrile], the flash point is reported as 13.00 °C. `Brc1ccccc1` [bromobenzene] showed a flash point of 51.00 °C. Compound `C=CC=C(C)C` [4-methylpenta-1,3-diene] has a flash point of -34.00 °C. For `CC(=O)OCC(COC(C)=O)OC(C)=O` [2,3-diacetyloxypropyl acetate], the flash point was 138.00 °C. `CN(C)c1ccc(N)cc1` [4-N,4-N-dimethylbenzene-1,4-diamine] showed a flash point of 91.00 °C. Work on `C=COCCCC` [1-ethenoxybutane] yielded a flash point of -9.00 °C. Compound `Cc1ccc(N)cc1[N+](=O)[O-]` [4-methyl-3-nitroaniline] has a flash point of 157.00 °C. `Cc1ccccc1OP(=O)(Oc1ccccc1C)Oc1ccccc1C` [tris(2-methylphenyl) phosphate] showed a flash point of 225.00 °C. In the case of `COc1ccc(O)cc1` [4-methoxyphenol], the flash point is reported as 132.00 °C. Compound `CCCCCC(C)(C)S` [2-methylheptane-2-thiol] has a flash point of 46.00 °C. In the case of `NCCNCCN` [N'-(2-aminoethyl)ethane-1,2-diamine], the flash point is reported as 102.00 °C. Compound `CC(=O)O` [acetic acid] has a flash point of 40.00 °C. For `Cc1ccc2ccccc2c1` [2-methylnaphthalene], the flash point was 98.00 °C. In the case of `OC1CCCCC1` [cyclohexanol], the flash point is reported as 68.00 °C. For `CCCCCCCCCCCCCCCCCCCCCCCCC` [pentacosane], the flash point was 120.00 °C. `O=C=Nc1ccc(Cc2ccc(N=C=O)cc2)cc1` [1-isocyanato-4-[(4-isocyanatophenyl)methyl]benzene] gave a flash point of 218.00 °C. Compound `CCCCOCCOCCOCCOCCO` [2-[2-[2-(2-butoxyethoxy)ethoxy]ethoxy]ethanol] has a flash point of 166.00 °C. Compound `C[CH2][Pb]([CH2]C)([CH2]C)[CH2]C` [tetraethylplumbane] has a flash point of 93.00 °C. With `Cc1ccccc1C` [1,2-xylene] the flash point was 17.00 °C. `CCOC(=O)c1ccccc1C(=O)OCC` [diethyl benzene-1,2-dicarboxylate] showed a flash point of 140.00 °C. Compound `CCCCCCCCCCCCCCCCCCO` [octadecan-1-ol] has a flash point of 200.00 °C. With `C=CC(=O)OCC(C)O` (stereo not given) [2-hydroxypropyl prop-2-enoate] the flash point was 65.00 °C. With `CC(=O)C=C(C)C` [4-methylpent-3-en-2-one] the flash point was 23.00 °C. For `ClCC(Cl)CCl` [1,2,3-trichloropropane], the flash point was 82.00 °C. `CC1(C)OCC(CO)O1` (stereo not given) [(2,2-dimethyl-1,3-dioxolan-4-yl)methanol] gave a flash point of 80.00 °C. Compound `C=C(C)C(=O)OCCO` [2-hydroxyethyl 2-methylprop-2-enoate] has a flash point of 97.00 °C. `C=C(Cl)Cl` [1,1-dichloroethene] gave a flash point of -10.00 °C. For `Oc1ccccc1O` [benzene-1,2-diol], the flash point was 127.00 °C. Compound `CCCCCCCCCCCCCCCCCC(=O)O` [octadecanoic acid] has a flash point of 196.00 °C. With `c1ccncc1` [pyridine] the flash point was 20.00 °C. `OCCOCCO` [2-(2-hydroxyethoxy)ethanol] gave a flash point of 143.00 °C. Work on `O=CC(Cl)Cl` [2,2-dichloroacetaldehyde] yielded a flash point of 60.00 °C. `CC(C)(C)c1ccccc1OP(=O)(Oc1ccccc1)Oc1ccccc1` [(2-tert-butylphenyl) diphenyl phosphate] showed a flash point of 224.00 °C. For `O=C(O)Cc1ccccc1` [2-phenylacetic acid], the flash point was 132.00 °C.

Source: a flash point compilation (Sun et al. 2020)
